For the assay, the system named is GKI (PPTG_18934). The following applies: pH 8.0, phosphate buffer.

The structures appear in SMILES notation. Read-outs that look alike come from different tables or passages of the source.

Turning to `Nc1ncnc2c1ncn2[C@@H]1O[C@H](COP(=O)(O)OP(=O)(O)OP(=O)(O)O)[C@@H](O)[C@H]1O` [ATP], the Km (read-out: Km / ATP, co-substrate glucose) turned out to be 700 ± 50 µM. For the molecule `OC[C@H]1OC(O)[C@H](O)[C@@H](O)[C@@H]1O` (some centres unmarked) [Glucose], the Km (read-out: Km / Glucose, substrate inhibition at glucose >= 1 mM) is 40.5 ± 5 µM.

The values are drawn from article PMC8879444, “Neofunctionalization of Glycolytic Enzymes: An Evolutionary Route to Plant Parasitism in the Oomycete Phytophthora nicotianae” (Microorganisms, 2022).
